From patent US6482436B1, “Magnetically responsive composition” (FeRx Incorporated, priority 1993, dated 2002)
In brackets after ≈: the same amount, converted by molar mass.

Tests used:
[1] = Adsorption curves and adsorption constants of pharmaceutical agents on iron:carbon carrier particles; type: physicochemical
Description: Adsorption upon the particles of various types of pharmaceutical agents at a range of concentrations of the pharmaceutical agent in the absorption solution was performed to determine the absorption curves and absorption constants for each compound as follows: A 16-mer anti-C-Myc oligonucleotide useful in antisense gene-directed therapy is an all phosphorothioate oligodeoxynucleotide, fluorescein-labeled at 5′ end (Macromolecular Resources, Fort Collins, Colo.). […] Unbound drug in adsorption supernatants was determined from the fluorescein fluorescence (Exc. 495 nm, em. 549 nm) using a standard curve. Hematoporphyrin dihydrochloride (Sigma Chemical, USA, H-1875, Lot #23H0879) is a photosensitizer useful in tumor therapy. The compound accumulates by biological processes in certain types of tumor tissue. Upon exposure to light, such as provided by a laser, the compound undergoes a chemical transformation to produce oxygen singlets that are toxic to cells in which it has accumulated. A stock adsorption solution was prepared and drug concentration was determined by spectrophotometry according to G. Garbo et al. Anal. […] The adsorption equation determined by computer analysis using commercially available software was: […] 6-Mercaptopurine sodium salt (provided by Dr. Gruber, Burroughs Wellcome, Lot #7P2774) is an anti-inflammatory agent. […] Drug concentration in adsorption supernatants was determined by spectrophotometry (standard curve: […] Drug concentrations in adsorption supernatants determined by spectrophotometry yielded the following equation for the concentration curve: […] Drug concentration in adsorption supernatants as determined by spectrophotometry yield the following equation for the concentration curve: […] Concentration was determined by absorbance at 253 nm (λmax=253 nm in saline solution).

[2] = Release of adsorbed Re into saline over 24 hours; type: physicochemical
Description: (§1) An adaptation of a colorimetric Re assay used in the field of metallurgy was used to determine the adsorption of the Re onto carrier particles having a 70:30 iron:carbon ratio. In brief, a 0.1 to 0.5 ml sample was placed in a solution containing 1.0 ml of HCl, 1.3 ml of −α furildoxime (6% in acetone), 0.5 ml of 10% stannous chloride and sufficient water to make 5.0 ml. The mixture was heated to 45° C. for 20 minutes and allowed to cool to room temperature. The absorbance of Re in the solution was measured at 532 nm. The sensitivity of the assay was to about 5 mcg Re. […] As with other drugs, the % binding of Re in the adsorption medium decreases as the Re to carbon ratio increases. […] Release over 24 hours of the Re into physiological saline at ambient temperature from the various carbons preloaded with adsorbed Re was 50% by weight.
Less than 10% of the Re was released upon incubation under efflux conditions in saline over 24 hours. The low binding of Re to the carrier particles is consistent with the low binding of other charged, small ionic molecules to activated carbon as compared with the high affinity binding of hydrophobic aromatic molecules. These findings are consistent with use of the carrier particles of the invention with adsorbed Re or Tc as imaging and therapeutic agents.

[3] = Re binding to a series of carbons (colorimetric Re assay); type: physicochemical; settings: ambient temperature
Description: as §1

[4] = Effect of adsorption medium composition on Dox binding to carrier particles; type: physicochemical; settings: six test adsorption media; particles first in viscosity agent, Dox/saline added later
Description: Additional studies were conducted to compare the effect of the composition of the adsorption solution on the binding of the Dox to carrier particles having an iron:carbon ratio in the range 60:40 to 80:20. The following six test adsorption media compositions were formulated to provide sufficient viscosity to keep the carrier particles physically separate during adsorption of the Dox. The particles were first placed in the viscosity agent and the Dox/saline solution was later added.
1. 10% mannitol; 2% sodium carboxymethyl cellulose (CMC) (medium viscosity); 2% polyvinyl pyrrolidone (PVP in 50 mM citrate phosphate buffer
2. 5% mannitol; 2% CMC; 2% PVP in 50 mM citrate phosphate buffer.
3. 5% mannitol; 2% CMC; 2% PVP; 5% sorbitol in 50 mM citrate phosphate buffer.
4. 10% mannitol; 1% CMC; 2% PVP (K15) in 10 mM potassium phosphate buffer (pH 7.4).
5. 10% mannitol; 1% sodium CMC; potassium phosphate buffer (pH 7.4).
6. 5% sorbitol; 1% sodium CMC; 2% PVP (K1 5); 5% mannitol; in potassium phosphate buffer (pH 7.4)

tumor cells in culture = test: In vitro cytotoxicity evaluation with magnetic field retention of carrier particles; type: cell-based; settings: Homo sapiens; released paclitaxel: with or without magnet
Description: The IC50 for free paclitaxel alone was identical (5 ng/mL) to paclitaxel released from the carrier particles with or without magnet (5 ng/mL).

[5] = test system: human squamous carcinoma cell line, SCC-9; test: Long-term CF clonogenic assay; type: cell-based; settings: colonies after 2-3 weeks
Description: A separate long-term CF clonogenic assay was evaluated concurrently. In this assay, cells were plated on 35 mm petri dishes and exposed to drug and controls as outlined above. Treated cells were incubated for 2-3 weeks to allow time for colonies to establish. These colonies were fixed in 2% acetic acid and 8% ethanol and stained with crystal violet. The colonies were counted under a Bella Glass Plate Reader.

[6] = test system: carcinosarcoma Walker 256; test: Treatment of Walker 256 carcinosarcoma under the tail skin of rats: life span and tumor dissolution; type: in vivo, rats of the Wistar Line; settings: group II; water solution i.v. 2 mg/kg during 5 days; versus control group I (21±1.5 days); P<0.05
Description: Tests were carried out on male rats of the Wistar Line (bred at Stolbovaya Station of the USSR Academy of Medical Sciences). The rats were infused with carcinosarcoma Walker 256 under the tail skin. When the tumorous volume averaged 986±98 mm^3 the animals were divided into 4 groups, 10 rats in each. The first group (group I) was a control group, and groups II through IV were experimental groups.
The animals in group II were given intravenous injections of a water solution of rubomicine in the amount of 2 mg/kg of body weight during 5 days (the model of traditional use of such anti-cancerous preparations in clinics). The rats in group III were injected with a suspension of ferrocarbon dispersion produced by the previously known method described in European Patent Office Publication No. 0 451 299 A1. The particles comprised iron/carbon in a volume percent ratio of 60:40. The dosage of ferrocarbon particles was 160 mg/kg of body weight, and the dosage of adsorbed rubomicine thereon was 3.2 mg/g of particles. This suspension was injected into the tail vein after placing on the surface of the tumor a permanent magnet with a magnetic field intensity of 6000 oersteds. Localization of the suspension in the tumorous growth zone under control of the externally placed magnetic field was monitored by x-ray pictures. […]

[7] = Comparative binding of photosensitizers to iron:carbon particles; type: physicochemical; settings: 80 mcg/ml (0.11 mM) in PBS pH 7.4, 50 mg particles
Description: (§2) Certain porphyrins are photosensitizing compounds useful in photodynamic therapy against tumors. […] Several classes of photosensitizers were screened for comparative binding to iron:carbon particles of various composition. The wavelength near the activation wavelength (often the λmax) of a particular photosensitizer was used for quantitative drug measurements. […] The photosensitizers tested were hematoporphyrin derivative (HPD); benzoporphyrin derivative monoacid A (BPD-ma); Photofrin® porfimer sodium (PF2); and clorin e6. For the binding studies, 10 mg of carbon or 50 mg of iron:carbon particles were optimum. An octanol/buffer (pH 7.4) partition coefficient for the four compounds was as follows: HPD=1; chlorin e6=1.1; PF2=0.1≧; and BPD-ma=4000>.

[8] = Octanol/buffer (pH 7.4) partition coefficient; type: physicochemical
Description: as §2

[9] = Binding and release of BPD-ma with prototype iron:carbon carrier particles (MTCs); type: physicochemical; settings: from a 10-fold increase in the initial concentration of the drug; isopropanol medium, 18 hours
Description: In order to achieve higher loading levels of BPD-ma, the binding capacity and fractional binding of the drug to four prototype iron:carbon carrier particles (MTCs, or, magnetic targeted compounds) was tested using 1.4 mM drug in isopropanol (with 0.5% 0.02 M acetic acid) as the adsorption medium and a longer equilibration period of 18 hours.

[10] = 80:20 Type K, 0.9% NaCl, pH 10.4, equilibration 2 hrs
[11] = 75:25 Type K, Saline solution, equilibration 0.5 hr

## Sc1ncnc2nc[nH]c12.[Na] [6-MP Mercaptopurine, 6-Mercaptopurine sodium salt]
[1]; [10]
  Adsorption constant: 0.24 ± 0.064 (mg/ml)^−1
  Maximum adsorption (% of carrier weight): 11.0 ± 0.97 % of carrier weight

## C[C@@H]1[C@H](O)[C@@H](C)/C=C/C=C/C=C/C=C/C=C/C=C/C=C/[C@H](O[C@@H]2O[C@H](C)[C@@H](O)[C@H](N)[C@@H]2O)C[C@@H]2O[C@](O)(C[C@@H](O)C[C@@H](O)[C@H](O)CC[C@@H](O)C[C@@H](O)CC(=O)O[C@H]1C)C[C@H](O)[C@H]2C(=O)O [Amphotericin B]
[1]; 80:20 Type K, 0.9% NaCl pH 12 (KOH), equilibration 24 hrs
  Maximum adsorption (% of carrier weight): 10.4 ± 0.55 % of carrier weight

## CC[C@@]1(O)C(=O)OCc2c1cc1n(c2=O)Cc2cc3ccccc3nc2-1 [Camptothecin]
[1]; [11]
  Adsorption constant: 521 (mg/ml)^−1
  Maximum adsorption (% of carrier weight): 11 % of carrier weight
[1]; 80:20 Type K, C/E 1:1 (chloroform:ethanol), equilibration 3 hrs, footnote: Below detection limit
  Maximum adsorption (% of carrier weight): 0^2 % of carrier weight

## [Re] [Re, rhenium]
[2]; from iron:carbon carrier particles, efflux conditions in saline
  Re released over 24 hours: Less than 10%
[2]; from the various carbons preloaded with Re, physiological saline, ambient temperature
  release of Re over 24 hours: 50 % by weight
[3]; 30 mg carbon in the adsorption medium
  Re binding to a series of carbons: about 35%
[3]; 180 mg carbon in the adsorption medium
  Re binding to a series of carbons: about 90%

## COc1cccc2c1C(=O)c1c(O)c3c(c(O)c1C2=O)C[C@@](O)(C(=O)CO)C[C@@H]3O[C@H]1C[C@H](N)[C@H](O)[C@H](C)O1 [doxorubicin]
[4]
  adsorption of Dox to the carrier particles by adsorption medium: highest adsorption of Dox to the carrier particles was obtained using formulae 4, 5, and 6

## CC(=O)O[C@H]1C(=O)[C@@]2(C)[C@H]([C@H](OC(=O)c3ccccc3)[C@]3(O)C[C@H](OC(=O)[C@H](O)[C@@H](NC(=O)c4ccccc4)c4ccccc4)C(C)=C1C3(C)C)[C@]1(OC(C)=O)CO[C@@H]1C[C@@H]2O [paclitaxel]
Tumor cells in culture
  IC50: 5 ng/mL (≈ 5.86 nM)
[5]
  IC50: 3 ng/mL (≈ 3.51 nM)

## COc1cccc2c1C(=O)c1c(O)c3c(c(O)c1C2=O)C[C@@](O)(C(C)=O)C[C@@H]3O[C@H]1C[C@H](N)[C@H](O)[C@H](C)O1 [rubomicine]
[6]
  life span following treatment increased by an average of: 4.5 days

## Photofrin® porfimer sodium [PF2]
[7]; iron:carbon 30:70 Type A
  % binding, %: 11.4%
  % binding, mg/mg %: 0.13 mg/mg %
[7]; iron:carbon 30:70 Type E
  % binding, %: 7.2%
  % binding, mg/mg %: 0.08 mg/mg %
[8]
  octanol/buffer partition coefficient: ≤ 0.1

## benzoporphyrin derivative monoacid A [BPD-ma]
[9]
  increase in binding capacity: 30 fold
[7]; iron:carbon 30:70 Type A
  % binding, %: 30.1%
  % binding, mg/mg %: 0.33 mg/mg %
[7]; iron:carbon 30:70 Type E
  % binding, %: 23.0%
  % binding, mg/mg %: 0.25 mg/mg %
[8]
  octanol/buffer partition coefficient: > 4000

## clorin e6
[7]; iron:carbon 30:70 Type A
  % binding, %: 69.9%
  % binding, mg/mg %: 0.8 mg/mg %
[7]; iron:carbon 30:70 Type E
  % binding, %: 68.8%
  % binding, mg/mg %: 0.7 mg/mg %
[8]
  octanol/buffer partition coefficient: 1.1

## hematoporphyrin derivative [HPD]
[7]; iron:carbon 30:70 Type A
  % binding, %: 41.9%
  % binding, mg/mg %: 0.5 mg/mg %
[7]; iron:carbon 30:70 Type E
  % binding, %: 37.0%
  % binding, mg/mg %: 0.4 mg/mg %
[8]
  octanol/buffer partition coefficient: 1
